Here are results for one substance from patent US9393288B2, “Methods of treating diseases associated with PPARγ” (The University of Vermont and State Agricultural College, priority 2012, dated 2016).

“Also recorded” adds a separate entry of the source.

Common to all, as to type: in vivo, rat
Experiment [1] has as its system PPARγ and PPARγ target genes. Put plainly: Expression of PPARγ and PPARγ target genes (qPCR) in adipose tissue and brain cortex, SHR. The method, then: (§1) After dissecting PA and MCA for isolated vessel experiments, the remaining MCA, PA, and brain cortex from the MCA territory of 4-6 rats were collected and stored at −80° C. in RNase inhibitor (1 unit/μl, RiboLock, Fermentas, Glen Burnie, Md., USA) to determine mRNA expression levels of target genes using real-time qPCR methods. Target genes were assessed using Assays on Demand from Applied Biosystems. […] All primers were designed across an exon-exon junction to avoid detecting genomic DNA, so no DNase treatment was required. Housekeeping gene β-actin was used in all qPCR experiments as a control. Standard techniques for real-time qPCR were performed by the Vermont Cancer Center DNA analysis facility at the University of Vermont, as described previously (Cipolla, M. J., Smith, J., Kohlmeyer, M. M., and Godfrey, J. A. (2009) SKCa and IKCa Channels, myogenic tone, and vasodilator responses in middle cerebral arteries and parenchymal arterioles: effect of ischemia and reperfusion. Stroke 40, 1451-1457).
(§2) To investigate the mechanisms by which relaxin causes selectively remodeling of PA, mRNA expression of VEGF, MMP-2, and MMP-9 were compared between MCA, PA, brain cortex. To determine if relaxin activates peroxisome proliferator-activated receptor-gamma (PPARγ), expression levels of PPARγ target genes fatty acid binding protein-4 (FABP4) and plasminogen activator inhibitor-1 (PAI-1) were determined in mesenteric adipose tissue. Expression levels of PPARγ and its target genes PAI-1 and liver X receptors-α (LXR-α) were also determined in brain cortex (Chan, S. L., and Cipolla, M. J. (2012) Determination of PPARgamma activity in adipose tissue and spleen. J Immunoassay Immunochem 33, 314-324).

For experiment [2], the system named is middle cerebral arteries (MCA). Description: Pressurized arteriograph: structure of MCA from female SHR. The note with it: SHR-F-Rln vs untreated SHR-F. The method, then:
A separate group of SHR-F was used to determine if relaxin crosses the BBB by treating with relaxin (4 μg/hr) for 14 days and measuring relaxin concentration in cerebrospinal fluid (CSF) and serum (SHR-F-Rln-CSF, n=4). For the osmotic pump implant, animals were anesthetized with 3% isoflurane and minipumps implanted subcutaneously in the back of the neck. All animals received post-surgical analgesia (buprenorphine, 50 μg/kg, s.c.). Relaxin infusion was continuous for 14 days until animals were euthanized for isolated vessel experiments and tissue collection.
After collecting trunk blood, the brain was quickly removed and placed in cold physiological salt solution (PSS). […] Temperature and pH were continuously measured and maintained at 37.0±0.5° C. and 7.40±0.05, respectively. […]
PA and MCA were equilibrated for 1 hour, after which myogenic activity was determined by stepwise increases in pressure from 40 to 100 mmHg for PA or 50 to 175 mmHg for MCA. ID and WT were measured at each pressure once stable. […] To obtain structural measurements, ID and WT were recorded at pressures between 5 to 200 mmHg for PA or 5 to 175 mmHg for MCA in zero-calcium PSS containing ethylene glycol tetra-acetic acid (EGTA) and outer diameter (OD) and distensibility calculated.
Percent tone was calculated as percent decrease in ID from the passive diameter at each intravascular pressure: [1−(IDactive/IDpassive)]×100. […]

Experiment [3] relates to VEGF. Put plainly: VEGF expression in brain cortex (immunohistochemistry and qPCR), SHR. The note with it: SHR-F-Rln vs SHR-F. The method, then:
as §1, §2
Brain cortex from the MCA region from WKY-F, SHR-F and SHR-F-Rln groups was collected and fixed in 4% formaldehyde for 48 hours at 4° C. and embedded in paraffin. Brain cortex was cut into 5 μm sections. […] Staining intensity was assessed using a semi-quantitative scoring system from 0 (lowest staining intensity) to 5 (highest staining intensity) in a blinded fashion. […]
(In general: Real-time PCR tracks product formation cycle by cycle.)

Setting [4] is: SHR-F-Rln vs SHR-F, listed as Relaxin.

In the case of relaxin, in experiment [1] (setting [4]), the “FABP4 expression in adipose tissue” value was “decreased both FABP4 and PAI-1 expressions in adipose tissue, although this was not statistically significant; also recorded: decreased expression of FABP4 and PAI-1 in adipose tissue, although this was not statistically significant”; the “PAI-1 expression in adipose tissue” value is “decreased both FABP4 and PAI-1 expressions in adipose tissue, although this was not statistically significant; also recorded: decreased expression of FABP4 and PAI-1 in adipose tissue, although this was not statistically significant”. For the same substance, the “Expression of PPARγ and its target genes (PAI-1, LXR-α) in brain cortex” value in experiment [1] (WKY-F, SHR-F, SHR-F-Rln) is recorded as “did not affect”. For the same substance, in experiment [2], the “Structure of MCA (passive ID, WT, distensibility)” value is listed as “no effect”. The “VEGF mRNA expression in brain cortex” value in experiment [3] is listed as “increased”. For the same substance, the “VEGF immunoreactivity (staining intensity) in brain cortex” value in experiment [3] (p<0.05) was “significantly increased”. Moreover, in experiment [3] (listed as Relaxin), the “VEGF mRNA expression in brain cortex” value is given as “significantly increased”.
